We go through 13 substances from patent publication US7737125B2, “LNA antagonists targeting the androgen receptor” (Enzon Pharamaceuticals, Inc., priority 2007, dated 2010).

Strand notation (5' to 3'): a small letter for the sugar, then the base; units joined by * are phosphorothioate-linked, units joined directly phosphodiester-linked; [ ] holds rarer units or linkages, { } end groups; capitals alone tell only the bases. l = locked nucleic acid (LNA); [5mC] = 5-methylcytosine; d = 2'-deoxy (DNA)

The subject of data set [1] is human androgen receptor mRNA. As to the kind of experiment: Inhibition of androgen receptor mRNA expression in MCF7 cells, real-time PCR after transfection. The class given is cell-based. To be noted: 16 nM oligonucleotide, AR mRNA normalised to GAPDH, down-regulation relative to mock transfected cells. The protocol:
FIG. 1. Oligonucleotides presented in Table 3 were evaluated for their potential to knockdown the androgen receptor mRNA at concentrations of 1, 4 and 16 n-M in MCF7 cells 24 hours after transfection using Real-time PCR. All results were normalised to GAPDH and inhibition of AR mRNA is shown as percent of untreated control. Results shown are an average of three independent experiments.
MCF7 The human breast cancer cell line MCF7 was cultured in EagleMEM (Sigma)+10% fetal bovine serum (FBS)+2 mM Glutamax I+1×NEAA+gentamicin (25 μg/ml).
(§1) The cell lines listed in Example 4 were treated with an oligomer using the cationic liposome formulation LipofectAMINE 2000 (Gibco) as transfection vehicle. Cells were seeded in 6-well cell culture plates (NUNC) and treated when 80-90% confluent. Oligomer concentrations used ranged from 1 nM to 16 nM final concentration. Formulation of oligomer-lipid complexes were carried out essentially as described by the manufacturer using serum-free OptiMEM (Gibco) and a final lipid concentration of 5 μg/mL LipofectAMINE 2000. Cells were incubated at 37° C. for 4 hours and treatment was stopped by removal of oligomer-containing culture medium. Cells were washed and serum-containing media was added. After oligomer treatment, cells were allowed to recover for 20 hours before they were harvested for RNA analysis.
(§2) Total RNA was extracted from cells transfected as described above and using the Qiagen RNeasy kit (Qiagen cat. no. 74104) according to the manufacturer's instructions. First strand synthesis was performed using Reverse Transcriptase reagents from Ambion according to the manufacturer's instructions.
(§3) For each sample, the volume of 0.5 •g total RNA was adjusted to 10.8 •l with RNase free H2O and mixed with 2 •l random decamers (50 •M) and 4 •l dNTP mix (2.5 mM each dNTP) and heated to 70° C. for 3 min, after which the samples were rapidly cooled on ice. After cooling the samples on ice, 2 •l 10× Buffer RT, 1 •l MMLV Reverse Transcriptase (100 U/•l) and 0.25 •l RNase inhibitor (10 U/•l) were added to each sample, followed by incubation at 42° C. for 60 min, heat inactivation of the enzyme at 95° C. for 10 min and then cooling of the sample to 4° C.
(§4) The amount of human androgen receptor mRNA in the samples was quantified using the human androgen receptor ABI Prism Pre-Developed TaqMan Assay Reagents (Applied Biosystems cat. no. Hs00171172_m1) according to the manufacturer's instructions.
(§5) Glyceraldehyde-3-phosphate dehydrogenase (GAPDH) mRNA quantity was used as an endogenous control for normalizing any variance in sample preparation.
(§6) The cDNA from the first strand synthesis performed as described in Example 6 was diluted 2-20 times, and analyzed by real time quantitative PCR using Taquman 7500 FAST or 7900 FAST from Applied Biosystems. The primers and probe were mixed with 2× Taqman Fast Universal PCR master mix (2×) (Applied Biosystems Cat. #4364103) and added to 4 μl cDNA to a final volume of 10 μl. Each sample was analysed in duplicate. Standard curves were generated by assaying 2-fold dilutions of a cDNA that had been prepared on material purified from a cell line expressing the RNA of interest. Sterile H2O was used instead of cDNA for the no-template control. PCR program: 95° C. for 30 seconds, followed by 40 cycles of 95° C., 3 seconds, 60° C., 20-30 seconds. Relative quantities of target mRNA were determined from the calculated Threshold cycle using the Applied Biosystems Fast System SDS Software Version 1.3.1.21. or SDS Software Version 2.3.
(§7) Oligonucleotides presented in Table 3 were evaluated for their potential to knock down androgen receptor mRNA expression at concentrations of 1, 4 and 16 nM (see FIGS. 1 and 2).
(§8) The data in Table 3 are presented as percentage down-regulation relative to mock transfected cells at 16 nM. Lower case letters represent DNA monomers, bold, upper case letters represent β-D-oxy-LNA monomers. All cytosine bases in the LNA monomers are 5-methylcytosines. […]

For data set [2], the system named is human androgen receptor mRNA. As to the kind of experiment: Inhibition of androgen receptor mRNA expression in A549 cells, real-time PCR after transfection. To be noted: 16 nM oligonucleotide, AR mRNA normalised to GAPDH, down-regulation relative to mock transfected cells. It is filed as cell-based. The protocol:
FIG. 2. Oligonucleotides presented in Table 3 were evaluated for their potential to knockdown the androgen receptor mRNA at concentrations of 1, 4 and 16 nM in A549 cells 24 hours after transfection using Real-time PCR. All results were normalised to GAPDH and inhibition of AR mRNA is shown as percent of untreated control. Results shown are an average of three independent experiments.
A549 The human lung cancer cell line […] was cultured in DMEM (Sigma)+10% fetal bovine serum (FBS)+2 mM Glutamax I+gentamicin (25 μg/ml).
as §1, §2, §3, §4, §5, §6, §7, §8
(Real-time PCR tracks product formation cycle by cycle.)

The test system of data set [3] is mouse androgen receptor mRNA. The experiment in a line: In vivo knock-down of AR mRNA expression in mouse liver (QPCR). To be noted: nude mice, 100 mg/kg i.v. q3dx4, liver 24 h after last dosing, normalised to mouse GAPDH, relative to saline treated animals. The protocol:
Nude mice were dosed i.v. q3dx4 with 100 mg/kg oligonucleotide (group size of 5 mice). The antisense oligonucleotides (SEQ ID:48, SEQ ID:51, SEQ ID:58, SEQ ID:63, SEQ ID:77) were dissolved in phosphate buffered saline. Animals were sacrificed 24 h after last dosing and liver tissue was sampled and stored in RNA later until RNA extraction and QPCR analysis. Total RNA was extracted and AR mRNA expression in liver samples was measured by QPCR as described in Example 7 using a mouse AR QPCR assay (cat. Mm01238475_m1, Applied Biosystems). Results were normalised to mouse GAPDH (cat. no. 4352339E, Applied Biosystems) and knock-own was quantitated relative to saline treated controls. The data in Table 4 are presented as percentage down-regulation relative to saline treated animals.

Regarding “5′-CsAsGsgscsasgsasasgsascsasTsCsT-3′ (antisense l[5mC]*lA*lG*dG*dC*dA*dG*dA*dA*dG*dA*dC*dA*lT*l[5mC]*lT) [SEQ ID NO: 76, LNA gapmer antisense oligonucleotide]”, in data set [1], the “Percent inhibition of Androgen receptor - MCF7” value (“Percent inhibition … - MCF7” below) is 85.9%. The “Percent inhibition of Androgen receptor - A549” value (“Percent inhibition … - A549” for short) in data set [2] is recorded as 94.3%.

On to “5′-CsAsTscscsasasascstscststsGsAsG-3′ (antisense l[5mC]*lA*lT*dC*dC*dA*dA*dA*dC*dT*dC*dT*dT*lG*lA*lG) [SEQ ID NO: 66, LNA gapmer antisense oligonucleotide]”, for which the “Percent inhibition … - MCF7” value in data set [1] was 79.8%. Also, in data set [2], the “Percent inhibition … - A549” value was 95.3%.

As for “5′-CsAsTscscscstsgscststscsasTsAsA-3′ (antisense l[5mC]*lA*lT*dC*dC*dC*dT*dG*dC*dT*dT*dC*dA*lT*lA*lA) [SEQ ID NO: 57, LNA gapmer antisense oligonucleotide]”, the “Percent inhibition … - MCF7” value in data set [1] was 89.5%. Besides, the “Percent inhibition … - A549” value in data set [2] turned out to be 88.9%.

Turning to “5′-CsCsCscstsgsgsascstscsasgsAsTsG-3′ (antisense l[5mC]*l[5mC]*l[5mC]*dC*dT*dG*dG*dA*dC*dT*dC*dA*dG*lA*lT*lG) [SEQ ID NO: 46, LNA gapmer antisense oligonucleotide]”, the “Percent inhibition … - MCF7” value in data set [1] is reported as 89.4%. For the same substance, in data set [2], the “Percent inhibition … - A549” value is reported as 82.8%.

Regarding “5′-CsTsTsgsgscscscsascststsgsAsCsC-3′ (antisense l[5mC]*lT*lT*dG*dG*dC*dC*dC*dA*dC*dT*dT*dG*lA*l[5mC]*l[5mC]) [SEQ ID NO: 61, LNA gapmer antisense oligonucleotide]”, the “Percent inhibition … - MCF7” value in data set [1] is 86.7%. Besides, in data set [2], the “Percent inhibition … - A549” value is 93.3%.

On to “5′-GsAsAsgststscsastscsasasasGsAsA-3′ (antisense lG*lA*lA*dG*dT*dT*dC*dA*dT*dC*dA*dA*dA*lG*lA*lA) [SEQ ID NO: 68, LNA gapmer antisense oligonucleotide]”, for which, in data set [1], the “Percent inhibition … - MCF7” value is on record as 88.2%. Further, the “Percent inhibition … - A549” value in data set [2] came out at 85.6%.

For “5′-GsAsGsasascscsastscscstscsAsCsC-3′ (antisense lG*lA*lG*dA*dA*dC*dC*dA*dT*dC*dC*dT*dC*lA*l[5mC]*l[5mC]) [SEQ ID NO: 44]”, the “Percent inhibition … - MCF7” value in data set [1] is 80.1%. For the same substance, the “Percent inhibition … - A549” value in data set [2] came to 63.8%.

For “5′-GsCsAscsasasgsgsasgstsgsgsGsAsC-3′ (antisense lG*l[5mC]*lA*dC*dA*dA*dG*dG*dA*dG*dT*dG*dG*lG*lA*l[5mC]) [SEQ ID NO: 47, LNA gapmer antisense oligonucleotide]”, the “Percent inhibition … - MCF7” value in data set [1] is recorded as 83.1%. In addition, the “Percent inhibition … - A549” value in data set [2] is recorded as 77.7%.

For “5′-GsCsTststscsastsgscsascsasgsGsA-3′ (antisense lG*l[5mC]*lT*dT*dT*dC*dA*dT*dG*dC*dA*dC*dA*dG*lG*lA) [SEQ ID NO: 67, LNA gapmer antisense oligonucleotide]”, the “Percent inhibition … - MCF7” value in data set [1] is 83.5%. The “Percent inhibition … - A549” value in data set [2] was determined as 97.0%.

As for “5′-GsGsAscscsasgsgstsasgscscsTsGsT-3′ (antisense lG*lG*lA*dC*dC*dA*dG*dG*dT*dA*dG*dC*dC*lT*lG*lT) [SEQ ID NO: 45, LNA gapmer antisense oligonucleotide]”, the “Percent inhibition … - MCF7” value in data set [1] was found to be 89.0%. Also, the “Percent inhibition … - A549” value in data set [2] was 88.2%.

Turning to “5′-TsCsCstsgsgsasgststsgsascsAsTsT-3′ (antisense lT*l[5mC]*l[5mC]*dT*dG*dG*dA*dG*dT*dT*dG*dA*dC*lA*lT*lT) [SEQ ID NO: 62, LNA gapmer antisense oligonucleotide]”, the “Percent inhibition … - MCF7” value in data set [1] is 81.3%. Besides, the “Percent inhibition … - A549” value in data set [2] came out at 93.0%.

As to “5′-TsTsGscsascsasgsasgsastsgsAsTsC-3′ (antisense lT*lT*lG*dC*dA*dC*dA*dG*dA*dG*dA*dT*dG*lA*lT*l[5mC]) [SEQ ID NO: 72, LNA gapmer antisense oligonucleotide]”, the “Percent inhibition … - MCF7” value in data set [1] stood at 79.2%. For the same substance, the “Percent inhibition … - A549” value in data set [2] is on record as 90.4%.

Turning to “5′-TsTsTsgsascsascsasasgstsgsGsGsA-3′ (antisense lT*lT*lT*dG*dA*dC*dA*dC*dA*dA*dG*dT*dG*lG*lG*lA) [SEQ ID NO: 51, LNA gapmer antisense oligonucleotide]”, the “Liver (% KD) of AR mRNA expression” value in data set [3] is reported as 65.0 +/− 12.6%.
